Data reported in patent publication US20100226857A1, “TUMOR CELL DIFFERENTIATION AGENTS AS CHEMICAL INHIBITORS AND TREATMENTS FOR INTRACELLULAR PARASITES” (priority 2006, published 2010).
≈ marks a conversion by molar mass, not a printed value.

How the values were obtained:
[1] = tested on: T. gondii tachyzoites; test: T. gondii tachyzoite proliferation assay in HS68 cells (tachyzoite count); assay type: cell-based, Toxoplasma gondii
Method: Parasite propagation—The RH strain of Toxoplasma gondii was grown in BM bovine macrophage cells or HS68 human foreskin fibroblast cells obtained from the American Type Culture Collection (Rockville, Md.). HS68 cells were grown in RPMI 1640 medium (Mediatech, Inc., Herndon, Va.) plus 10% fetal bovine serum (Atlanta Biologicals, Lawrenceville, Ga.), 1 mM sodium pyruvate and 100 U/ml each of penicillin and streptomycin. Parasites were harvested from infected cultures of HS68 cells growing in T-75 cm^2 flasks. After removing the culture medium, the cells were scraped into 5 ml of phosphate-buffered saline and a cell lysate obtained by passing through a 26-gauge needle. To purify the parasites, the cell lysate was filtered through a 3 micron (micrometer) filter.
(§1) Proliferation assays: HS68 cells were replica plated in 48-well dishes, and grown to confluence prior to infection with 5-10×10^4 freshly purified T. gondii tachyzoites/well. After 2 hours, the media and non-infective tachyzoites were removed, and replaced with RPMI medium containing 2% fetal bovine serum plus 1 mM sodium pyruvate, penicillin (100 U), streptomycin (100 U) and test agent or a vehicle control. The proliferation assays were terminated 48-72 hours post-infection when the untreated cells were heavily infected. All of the culture media were removed from the wells, and the tachyzoites in the media were fixed by dilution (1:1) into phosphate-buffered saline containing 10% formaldehyde. The tachyzoites were collected by brief centrifugation (30 seconds, […]) at room temperature using a tabletop microfuge. The tachyzoites were resuspended in 100 ul of phosphate-buffered saline, and duplicate aliquots were counted using a hemocytometer. […] The monolayer of HS68 cells in each well was fixed and stained for 5 minutes using a solution of 50% ethanol-5% formaldehyde-0.1% crystal violet in 0.85% sodium chloride, then rinsed with water, and air-dried. The minimum inhibitory concentration (MIC) of compounds that suppressed Toxoplasma-induced lysis of the HS68 cells was determined visually by counting the number of plaques/well in the monolayer.

[2] = tested on: T. gondii; test: Plaque suppression / protection of HS68 monolayer from T. gondii; assay type: cell-based, Toxoplasma gondii; details: for MIC IC50 (ratio MIC/IC50): MIC plaque suppression relative to IC50 tachyzoite count
Method: as §1

[3] = tested on: MCF-7 human breast cancer cells; test: ESR free radical (ROS) measurement in MCF-7 cell suspensions with DMPO; assay type: cell-based; details: for ESR signal indicative of ROS production in MCF-7 cells: 10 uM NSC3852, 8 uM NSC2039; for relative peak heights of the ESR signals (mean±range, n=2): 1×10^6 MCF-7 cells, 5 min at 37° C.
Method: Free Radical Measurements: All ESR measurements were conducted using a Bruker EMIR spectrometer (Bruker Instruments Inc., Billerica, Mass.) and a flat-cell assembly. Hyperfine couplings were measured (to 0.1 G) directly from magnetic field separation using potassium tetraperoxochromate (K3CrO8) and 1,1-diphenyl-2-picrylhydrazyl as reference standards. The relative radical concentration was estimated by multiplying half of the peak height by (ΔHpp)^2, where (ΔHpp) represents peak-to-peak width. The Acquisit program was used for data acquisitions and analyses. MCF-7 cells (2.0×10^6 cells/60-mm^2 dish) were harvested 48 h after plating by trypsinization and collected at room temperature by centnfugation (225 g, 5 min). Cells were washed once with ice-cold PBS and resuspended in ice-cold PBS at 2×10^6 cells/ml. Radical production was measured in the presence of the spin trap 5,5-dimethyl-1-pyrroline-N-oxide (DMPO; Aldrich Chemical Co., Milwaukee, Wis.). DMPO (200 mM) and 1×10^6 cells test agents were mixed in 1.0 ml of PBS, incubated at 37° C. for 5 mm, and then transferred to a flat cell for ESR measurements.

[4] = tested on: Cryptosporidium parvum; test: Real-time PCR analysis of C. parvum oocyst production in infected HCT-8 cells; assay type: cell-based; details: 48 hours, apicidin 70 ng/ml, SAHA 2.5 ug/ml
Method: Monolayer cultures of HCT-8 human colon cells growing in 24-well plastic tissue culture dishes were infected with C. parvum oocysts for 3 hours. […] The cells were harvested, and DNA was extracted. The DNA was analyzed for the production of C. parvum oocysts from the infected cells using real-time PCR and DNA primers that specifically amplify the C. parvum oocysts wall protein (COWP).

[5] = tested on: MCF-7 cells; test: Colorimetric determination of reduced and oxidized glutathione; assay type: cell-based, human; details: after 1 h, P<0.05
Method: Colorimetric Determination of Reduced and Oxidized Glutathione: The GSH and GSSG concentrations in MCF-7 cells (3×10^6 cell/60 mm^2 dish) were measured enzymatically using the GSHI GSSG-412 kit (Oxis Research, Portland, Oreg.). GSSG and GSH standards were prepared in 5% metaphosphoric acid. Cell samples were prepared in 5% metaphosphoric acid with or without 1-methyl-2-vinyl-pyridium trifluoromethane sulfonate, a GSH-specific scavenger. Ellman's reagent (5′,5-dithiobis-2-nitrobenzoic acid) reacts with GSH to form a product with an absorption maximum at 412 nm. GSSG was determined using glutathione reductase to reduce GSSG to GSH followed by reaction with Ellman's reagent.

[6] = tested on: MCF-7 cells; test: Comet assay for DNA damage; assay type: cell-based, human
Method: Comet Analysis: The comet assay is a single-cell gel electrophoresis method for measuring DNA damage. MCF-7 cells (2×10^5/35-mm^2 dish) were treated 12 h after plating. Twenty-four hours later, the cells were harvested and resuspended (1.5×10^5 cells/ml) in ice-cold PBS. The PBS cell suspension (50 ul) was mixed with 500 ul of 42° C. low-melting point agarose, spread evenly (75 ul) onto a Comet Slide (Trevigen, Gaithersburg, Md.), and allowed to harden. The slides were then immersed in ice-cold lysis solution (Trevigen) for 45 mm to lyse the cells and then transferred to freshly prepared alkali solution (300 mM NaOH and 1 mM EDTA, […]) for 45 mM. at room temperature to denature the DNA. Electrophoresis was performed at 4° C. Slides were air-dried overnight at room temperature and then stained with SYBR Green (Trevigen). Comets were visualized by fluorescence microscopy at 630× magnification with the aid of an antifade solution. Comet images were analyzed using the LAI Automated Comet Assay Analysis System (Loats Associates, Inc., Westminster, Md.). DNA damage was quantified in 80 comets per treatment/experiment using the tail moment [Tail moment [(% DNA) (distance traveled)]].

[7] = tested on: MCF-7 cells; test: Cell death ELISA (apoptosis); assay type: cell-based, human
Method: Cell Death Enzyme-Linked Immunosorbent Assay: We quantified cytoplasmic nucleosomes using the Cell Death Detection […] kit (Roche Molecular Biochemicals, Indianapolis, Ind.) in MCF-7 cells plated in triplicate into 96-well plates. The cytoplasmic fractions from attached cells in each well were assayed in duplicate for the presence of nucleosomes according to the directions from the suppliers. The apoptotic response was measured by the nucleosome-enrichment fraction calculated as the ratio of the absorbance (405 nm) of drug-treated cultures/solvent-exposed cultures.

[8] = tested on: T. gondii tachyzoites; test: NSC3852 inhibition of T. gondii tachyzoite proliferation in HS68 cells (Example 4); assay type: cell-based; details: Toxoplasma gondii, approximately 60 hours, n=5 experiments, read-out: median IC50 for inhibition of T. gondii tachyzoite proliferation
Method: Briefly, T. gondii tachyzoites (1×10^5) were introduced into individual wells in a 48-well culture dish containing confluent monolayers of host cells (normal human skin fibroblasts HS68). Approximately 60 hours later, the tachyzoites were harvested from the medium and counted. […] Data points wee the average of triplicate determinations at every concentration of NSC3852 used.

O=C(CCCCCCC(=O)NO)NO [SBHA, suberic bishydroxamic acid]
IC50 ([1]; RH strain T. gondii in HS68 cells, 48-well plate, 48-72 hours post-infection, mean+/-SEM, read-out: IC50 (uM) Tachyzoite Count): 0.213 ± 0.11 µM | MIC IC50 (ratio MIC/IC50) [2]: 58.7 | MIC (uM) Plaque Suppression ([2]; RH strain T. gondii in HS68 cells, 48-well plate, mean+/-SEM): 12.5 ± 5 µM (≈ 2.55 µg/mL) | ESR signal indicative of ROS production in MCF-7 cells [3]: rapid and robust ESR signals

NC(=O)c1cccnc1 [nicotinamide]
activity against T. gondii in in vitro assays [1]: minimal activity

CCC(=O)CCCCC[C@@H]1NC(=O)[C@H]2CCCCN2C(=O)[C@H]([C@@H](C)CC)NC(=O)[C@H](Cc2cn(OC)c3ccccc23)NC1=O [Apicidin]
number of oocysts/ml (mean ± S.D. n = 6) [4]: 517.7 ± 417.1 oocysts/ml | % Reduction in oocysts numbers ([4]; vs 0.1% DMSO): 92.2%

CCCC(=O)[O-].[Na+] [Sodium butyrate, sodium butyrate]
IC50 ([1]; Toxoplasma gondii, Hs68, read-out: IC50 (uM) Tachyzoite Count): 1000 ± 455 µM | IC50 ([1]; Toxoplasma gondii, Hs68, read-out: IC50 range of carboxylate inhibitors): 1000 to 5000 µM | MIC IC50 (ratio MIC/IC50) [2]: 4.2 | MIC ([2]; Toxoplasma gondii, read-out: MIC (uM) Plaque Suppression): 4200 ± 800 µM

O=Nc1ccc(O)c2ncccc12 [NSC3852, 5-nitroso-8-quinolinol]
relative peak heights of the ESR signals (mean±range, n=2) ([3]; 2 uM): 70±4 mm | ESR signal indicative of ROS production in MCF-7 cells [3]: indicative of the DMPO-OH adduct, was observed | relative peak heights of the ESR signals (mean±range, n=2) ([3]; 10 uM): 109±3 mm | decrease in [GSH]/[GSSG] compared with control cells [5]: 20% | DNA damage (comet tail moment) [6]: maximal at 24 h | time of peak apoptosis [7]: 48 h | IC50 [8]: 0.079 µM
